# According to PubChem BioAssay (NCI):
# Several values for one entry are separate records, joined by “and”; a condition that tells them apart may be missing. Equal entries are not always repeated.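 Each compound was tested at five concentrations against cells in 96-well plates for 48 hours. GI50 is the concentration that inhibits growth by half. At the TGI there is no net growth.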
# How the values were obtained:
# Experiment in all cases: NCI-60 cell line screen, 48 h
# [1] = tested on: UACC-257 melanoma
# [2] = tested on: NCI-H460 lung
# [3] = tested on: UACC-62 melanoma
# [4] = tested on: PC-3 prostate
# [5] = tested on: SR leukemia
# [6] = tested on: KM12 colon
# [7] = tested on: MCF7 breast
# [8] = tested on: MALME-3M melanoma
# [9] = tested on: MDA-MB-231 breast
# [10] = tested on: SF-268 CNS
SMILES,GI50 [1] [µM],TGI [1],GI50 [2],TGI [2],GI50 [3] [µM],TGI [3],GI50 [4] [µM],TGI [4],GI50 [5] [µM],TGI [5] [µM],GI50 [6] [µM],TGI [6],GI50 [7] [µM],TGI [7],GI50 [8] [µM],TGI [8],GI50 [9] [µM],TGI [9],GI50 [10] [µM],TGI [10] [µM]
Cc1cc(Cl)cc(Cc2cc(Cl)cc(C)c2O)c1O,3.02,12.3 µM,3.14 µM,10.5 µM,2.28,10.6 µM,2.55,8.68 µM,2.58,10.8,2.85,10.2 µM,2.47,9.66 µM,2.35,6.86 µM,2.46,8.22 µM,2.9,16.8
Cc1ccc(OCC2OC(n3cnc4c(Br)nc(Br)nc43)CC2Oc2ccc(C)cc2)cc1 (configuration not stated),10.3,20.4 µM and 21.3 µM,1.86 µM and 10.7 µM,6.07 µM and 28 µM,3.1,11.4 µM and 20.6 µM,5.42,16.2 µM and 11.8 µM,,4.67,2.46,8.76 µM and 9.56 µM,2.52,8.4 µM and 30.3 µM,6.5,16.3 µM and 21.6 µM,1.74,5.27 µM and 4.34 µM,,25.4
COC(=O)[C@]12CC[C@@H](C)[C@H](C)[C@@H]1C1=CC[C@@H]3[C@@]4(C)C(C=O)=C[C@@](C)(COC(=O)/C=C/c5ccccc5)[C@@H]4[C@H](O)C[C@@]3(C)[C@]1(C)CC2,2.36,6.82 µM,2.96 µM,10.2 µM,2.49,8.48 µM,2.22,> 100 µM,2.29,6.76,3.58,19.4 µM,2.37,11.3 µM,1.99,5.14 µM,4.36,27.2 µM,3.43,48.3
C#Cc1cccc(NC(=O)c2ccc(NC(=O)CCl)cc2)c1,> 82.5,> 82.5 µM,29.2 µM,> 82.5 µM,36.9,> 82.5 µM,15.4,60.4 µM,7.17,26.6,47,> 82.5 µM,22.6,> 82.5 µM,16.4,53.3 µM,24,> 82.5 µM,18.7,> 82.5
COc1ccc(/C=C2\c3cc(OC)c(OC)c(OC)c3CC[C@@H]2O)cc1F,> 100,> 100 µM,0.299 µM,16.9 µM,0.283,> 100 µM,0.474,> 100 µM,0.0899,> 100,0.373,> 100 µM,0.088,> 100 µM,0.261,> 100 µM,0.958,> 100 µM,0.748,> 100
COC1=CC(=O)c2nc(Cl)ccc2C1=O,1.68,3.12 µM,14 µM,29.3 µM,1.77,3.45 µM,3.73,16.5 µM,3.17,> 100,2.11,4.82 µM,1.91,4.19 µM,1.72,3.38 µM,1.84,6.44 µM,1.65,3.19
CCN(Cc1ccc(F)cc1)c1ccc(CO)c(OC)c1,8.85,42.7 µM,23.2 µM,> 100 µM,4.14,17.3 µM,13.3,33.9 µM,19.5,55.7,36.5,> 100 µM,25.3,> 100 µM,3.21,14.3 µM,23.1,> 88.5 µM,22.1,> 65.4
C=C1C(=O)O[C@H]2[C@H]1CC/C(COC(=O)NCCCCCCCCNC(=O)OC/C1=C/CC[C@@]3(C)O[C@H]3[C@H]3OC(=O)C(=C)[C@@H]3CC1)=C\CC[C@@]1(C)O[C@@H]21,0.848,2.82 µM,1.75 µM,3.98 µM,0.197,0.488 µM,0.385,1.63 µM,0.317,1.51,1.29,3.11 µM,0.221,0.833 µM,0.199,0.43 µM,0.2,0.458 µM,0.999,2.69
CCC[CH2][Pb]([Cl])([CH2]CCC)[CH2]CCC,0.0589,0.157 µM,0.0177 µM,0.0417 µM,0.0459,0.112 µM,0.0355,0.119 µM,0.0671,,0.0326,0.081 µM,0.0161,0.0361 µM,0.00428,0.0261 µM,0.0328,0.122 µM,0.0192,0.0677
O=C(O)CCC(C(=O)O)N1C(=O)C2C3CCC(C3)C2C1=O (configuration not stated),,> 100 µM,,> 100 µM,,> 100 µM,,> 100 µM,,> 100,,> 100 µM,,> 100 µM,,> 100 µM,,> 100 µM,,> 100
COc1cc2c(cc1C)NC(=O)/C2=C\c1c[nH]c2ccccc12,21.9,43.8 µM,4.93 µM,41.9 µM,13.3,28.4 µM,12.2,31.5 µM,8.91,42.6,0.417,21.1 µM,12.4,49.7 µM,15.3,42.3 µM,4.3,21.5 µM,12,36.3
COc1ccc(N(C)c2nc(Cl)nc3cnn(C)c23)cc1,29.8,> 100 µM,< 0.01 µM,> 100 µM,< 0.01,> 100 µM,< 0.01,> 100 µM,< 0.01,> 100,< 0.01,> 100 µM,< 0.01,> 100 µM,,> 100 µM,0.0262,> 100 µM,< 0.0112,> 100
Cc1ccc(S(=O)(=O)N2CCc3ccc(O)c4c3C2Cc2ccc3c(c2-4)OCO3)cc1 (configuration not stated),0.656,18.1 µM,0.539 µM,7.53 µM,0.577,9.41 µM,0.808,19.5 µM,0.352,5.98,0.456,3.66 µM,0.317,10.2 µM,0.775,30.4 µM,1.47,9.48 µM,1.01,23.3
N#CC1C(=O)NC(c2ccccc2[N+](=O)[O-])c2sc3c(F)cccc3c21 (configuration not stated),0.961,4.72 µM,0.28 µM,4.58 µM,0.341,4.27 µM,12.4,73 µM,7.86,> 65.4,20,51.4 µM,0.216,37 µM,19.5,63.7 µM,8.53,54.8 µM,15.8,56.9
CN1CCN(Cc2ccc(NC(=O)c3cncc(C#Cc4cnc(N)c5cnccc45)c3)cc2C(F)(F)F)CC1,0.161,1.45 µM,0.218 µM,3.31 µM,0.0782,0.282 µM,0.284,8.97 µM,0.229,2.97,0.0169,5.53 µM,0.921,8.75 µM,0.036,0.176 µM,0.0722,0.223 µM,0.234,6.93
Cc1nccc2c3ccc(OCc4cn(-c5ccc(Cl)cc5)nn4)cc3n(CC(C)C)c12,4.62,16.8 µM,2.33 µM,12.9 µM,2.31,10.1 µM,1.52,> 33.3 µM,1.03,5.53,2.69,16.8 µM,1.45,9.29 µM,4.62,13 µM,4.69,26.5 µM,11.2,> 33.3
CCCN1CCC(c2ccc(Nc3nc(Nc4cc(F)ccc4C(N)=O)c4cc[nH]c4n3)c(OC)c2)CC1,0.572,5.2 µM,0.147 µM,1.43 µM,3.58,7.44 µM,2.69,9.53 µM,0.0131,4.54,2.88,6.12 µM,0.0185,4.23 µM,3.13,7.54 µM,4.04,8.82 µM,3.42,7.8
CN(C)c1ccc(N=C2C=CC(=O)c3ccccc32)cc1,2.21,5.45 µM,1.98 µM,4.86 µM,1.71,3.24 µM,2.66,19.8 µM,2.86,14.1,2.69,10.2 µM,1.87,7.46 µM,1.6,3.75 µM,0.899,12.7 µM,2.92,13.1
C=CCc1c(O)c(C(=O)/C=C/c2ccccc2)c(OC)c2ccoc12,2.56,7.75 µM,2.79 µM,10.7 µM,2.74,9.93 µM,3.68,16.8 µM,2.15,6.05,4.06,13.6 µM,2.73,10.4 µM,5.8,20.2 µM,3.11,11.3 µM,2.8,10.7
COc1cc(/C=C/C(=O)c2c(C)nc3ccccc3c2C)ccc1OCCCN1CCN(C(=O)c2ccco2)CC1,3.28,16.1 µM,8.91 µM,21.7 µM,8.39,21.7 µM,6.44,26.7 µM,2.22,7.47,11.4,24.3 µM,3.8,15.8 µM,3.43,18.2 µM,7.22,29.9 µM,10.9,25.8
CC1=C([Se]CC(OC(=O)[C@@H](CO)NC(=O)OC(C)(C)C)C(=O)NCCCCCC(=O)OCc2ccccc2)C(=O)c2ccccc2C1=O (some centres not stated),,,0.462 µM,1.61 µM,1.68,3.07 µM,1.23,2.58 µM,1.6,6.55,1.53,2.9 µM,1.61,3.36 µM,2.07,3.82 µM,1.68,3.19 µM,1.85,3.27
COc1ccc2c(c1OC(C)=O)C1=CC(=O)CCC13CCNC3C2 (configuration not stated),,> 100 µM,,> 100 µM,,> 100 µM,,> 100 µM,,> 100,,> 100 µM,,> 100 µM,,> 100 µM,,> 100 µM,,> 100
C/C(=N/N=C(N)N)c1ccc(NC(=O)Nc2ccc(/C(C)=N/N=C(N)N)cc2)cc1,31.1,> 89.6 µM,13.5 µM,48.8 µM,17.4,45.3 µM,14.4,46.9 µM,15.2,30.1,9.78,> 77.7 µM,4.48,31.2 µM,16.5,46.9 µM,20,71.2 µM,17.2,> 71.2
CCn1ccc(NS(=O)(=O)c2ccc(N)cc2)nc1=O,> 100,> 100 µM,> 100 µM,> 100 µM,> 100,> 100 µM,> 100,> 100 µM,> 100,> 100,> 100,> 100 µM,> 100,> 100 µM,> 100,> 100 µM,> 100,> 100 µM,> 100,> 100
FC(F)(F)c1cc(Nc2ccc3cc(OCCCN4CCOCC4)ccc3n2)ccc1Cl,1.53,3.32 µM,1.72 µM,3.42 µM,,,1.09,2.68 µM,1.4,4.73,1.92,4.37 µM,1.51,3.56 µM,1.67,4.34 µM,1.83,4.2 µM,1.9,4.71
